# Test results as given in patent US20250136618A1, “ANTIBIOTIC PYRAZINOTHIAZINE DERIVATIVES AND PROCESS OF PREPARATION THEREOF” (Bugworks Research India PVT Ltd, priority 2021, published 2025).
# Columns and labels:
# Format in all cases: cell-based
# CHO-K1 cells = experiment: In-vitro micronucleus assay
# Description: Genetic toxicology studies were performed on the compounds of the present disclosure to assess their ability to cause DNA damage. The in-vitro micronucleus assay measured the concentration (μM) of the compound at which micronuclei formation occurred. A micronuclei formation at lower concentration indicates more genetic damage or genotoxicity.
# Micronucleus formation is a hallmark of genotoxicity, and the micronucleus assay is an important component of genotoxicity screening. Micronuclei are chromatin-containing bodies that represent fragments or even whole chromosomes that were not incorporated into a daughter cell nucleus at mitosis. The purpose of the assay is to detect agents that induce chromosome damage leading to the induction of micronuclei in interphase cells. The in vitro micronucleus assay was conducted in CHO-K1 cells according to the procedure described by Diaz, D et al [Mutat Res. 630(1-2):1-13. […] The formation of the micronucleus is identified by image-based high content analysis from binucleated cells.
# hERG potassium channel = hERG potassium channel (Homo sapiens (Human), UniProt Q12809); experiment: hERG inhibition assay (Qpatch HTX automated electrophysiology); details: CHO cell line expressing hERG, whole-cell patch clamp
# hERG potassium channel, sequence (Q12809 whole entry): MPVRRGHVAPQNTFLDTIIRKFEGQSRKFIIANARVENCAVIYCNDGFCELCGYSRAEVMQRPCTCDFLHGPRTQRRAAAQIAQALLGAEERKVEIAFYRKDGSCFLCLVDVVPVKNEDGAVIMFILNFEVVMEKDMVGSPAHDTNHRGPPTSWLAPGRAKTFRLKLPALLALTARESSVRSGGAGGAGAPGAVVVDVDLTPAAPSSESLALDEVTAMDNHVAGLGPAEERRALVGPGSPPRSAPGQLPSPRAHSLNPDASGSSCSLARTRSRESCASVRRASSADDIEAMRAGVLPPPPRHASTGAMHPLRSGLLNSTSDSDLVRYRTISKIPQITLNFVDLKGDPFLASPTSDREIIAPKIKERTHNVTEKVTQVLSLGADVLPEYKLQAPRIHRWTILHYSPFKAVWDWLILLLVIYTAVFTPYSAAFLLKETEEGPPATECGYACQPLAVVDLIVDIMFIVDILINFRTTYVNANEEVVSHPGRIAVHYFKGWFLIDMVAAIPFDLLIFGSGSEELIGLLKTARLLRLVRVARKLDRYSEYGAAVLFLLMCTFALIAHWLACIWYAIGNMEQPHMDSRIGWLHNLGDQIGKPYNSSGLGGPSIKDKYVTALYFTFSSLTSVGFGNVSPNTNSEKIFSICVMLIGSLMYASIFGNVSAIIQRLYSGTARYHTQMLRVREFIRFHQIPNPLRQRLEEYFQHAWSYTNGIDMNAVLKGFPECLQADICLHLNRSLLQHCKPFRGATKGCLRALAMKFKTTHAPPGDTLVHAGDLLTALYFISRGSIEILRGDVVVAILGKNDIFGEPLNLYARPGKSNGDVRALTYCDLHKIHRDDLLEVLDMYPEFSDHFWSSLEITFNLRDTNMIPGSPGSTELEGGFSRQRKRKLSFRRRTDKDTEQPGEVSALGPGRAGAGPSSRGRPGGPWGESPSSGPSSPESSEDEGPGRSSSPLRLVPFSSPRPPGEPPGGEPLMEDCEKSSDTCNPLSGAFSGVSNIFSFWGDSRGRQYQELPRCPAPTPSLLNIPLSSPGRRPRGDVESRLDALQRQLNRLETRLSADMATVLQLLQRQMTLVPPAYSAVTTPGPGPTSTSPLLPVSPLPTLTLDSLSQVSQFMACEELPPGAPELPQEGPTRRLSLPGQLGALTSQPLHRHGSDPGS
# Description: Electrophysiological recordings were made from a Chinese Hamster Ovary cell line stably expressing the full-length hERG potassium channel. Single cell ionic currents were measured in whole-cell patch clamp configuration at room temperature (21-23° C.) using the Qpatch HTX platform (Sophion). Intracellular solution contained (mM): 120 KF, 20 KCl, 10 EGTA, 10 HEPES and was buffered to pH 7.3. […] Cells were clamped at a holding potential of −80 mV. Cells were stepped to +20 mV for 2 s then −40 mV for 3 s before returning to the holding potential. […] Compounds were then incubated for 2 minutes prior to a second measurement of ion channel current using an identical pulse train.
# [1] = tested on: Staphylococcus aureus ATCC 29213; experiment: Minimum Inhibitory Concentration (MIC) in LB media; details: Staphylococcus aureus, ATCC29213, read-out: Minimum Inhibitory Concentration S. aureus ATCC 29213
# Text: (§1) The compounds of Formula Ia and Formula Ib are of interest due to their potent antibacterial effects. The ability of the compounds disclosed herein to achieve an antibacterial effect may be evaluated with regard to their ability to inhibit the growth of bacterial species like Escherichia coli ATCC 25922, Staphylococcus aureus ATCC 29213, Klebsiella pneumoniae ATCC 13883, Acinetobacter baumannii ATCC 19606, Pseudomonas aeruginosa ATCC 27853 and Enterococcus faecalis ATCC 29212 using an assay based on the following Minimum Inhibitory Concentration (MIC) protocol:
# (§2) The test bacteria were grown in Luria Bertani Broth (HIMEDIA M1245), 25 g of the powder was dissolved in 1000 ml distilled water and sterilized by autoclaving at 15 lbs pressure (121° C.) for 20 minutes. The medium sterility was checked by incubating at 37° C. for a period of 48 h. Bacterial cultures that were stored as glycerol stocks at −80° C. were subcultured on LB agar plates to obtain isolated colonies. A single colony of each strain was cultured in LB broth. The cultures were incubated at 37° C., 200 rpm till they reached an optical density (OD at 600 nm) of 0.8 to 1. This log phase culture was diluted in LB broth to a cell number of 5-8*10^5 CFU/mL to be used as inoculum for MIC experiments. Test compounds were dissolved in dimethyl sulfoxide (DMSO) to a stock concentration of 4 mg/ml. A two-fold dilution series of this DMSO stock was prepared in a 96 well V bottom microtitre plate from rows A to H. A 3 μL volume of these dilutions are transferred to a 96-well flat bottom microtitre assay plate. Controls to monitor the effects of DMSO and media sterility were included. Each well was inoculated with 150 μL of the above diluted culture. The plates were incubated at 37° C. overnight in a humidified incubator. The following morning, the plates were read using a Spectrophotometer at 600 nm wavelength. […] The antibacterial activity (MIC) determined against representative gram-positive (S. aureus, E. faecalis) and gram-negative (E. coli, Aeruginosa, K. pneumoniae, and A. baumannii) pathogen are reported Table 1.
# [2] = tested on: Enterococcus faecalis ATCC 29212; experiment: Minimum Inhibitory Concentration (MIC) in LB media; details: Enterococcus faecalis, ATCC29212, read-out: Minimum Inhibitory Concentration E. faecalis ATCC 29212
# Text: as §1, §2
# [3] = tested on: Acinetobacter baumannii ATCC 19606; experiment: Minimum Inhibitory Concentration (MIC) in LB media; details: Acinetobacter baumannii, ATCC19606
# Text: as §1, §2
# [4] = tested on: Pseudomonas aeruginosa ATCC 27853; experiment: Minimum Inhibitory Concentration (MIC) in LB media; details: Pseudomonas aeruginosa, ATCC27853
# Text: as §1, §2
# [5] = tested on: Klebsiella pneumoniae ATCC 13883; experiment: Minimum Inhibitory Concentration (MIC) in LB media; details: Klebsiella pneumoniae, ATCC13883, read-out: Minimum Inhibitory Concentration K. pneumoniae ATCC 13883
# Text: as §1, §2
# [6] = tested on: Escherichia coli ATCC 25922; experiment: Minimum Inhibitory Concentration (MIC) in LB media; details: Escherichia coli, ATCC25922, read-out: Minimum Inhibitory Concentration E. coli ATCC 25922
# Text: as §1, §2
# Pseudomonas aeruginosa = experiment: MIC90 determination, clinical strains (CLSI); details: N=34
# Enterobacter cloacae = experiment: MIC90 determination, clinical strains (CLSI); details: N=26
# Escherichia coli = experiment: MIC90 determination, clinical strains (CLSI); details: N=38
# Proteus mirabilis = experiment: MIC90 determination, clinical strains (CLSI); details: N=12
# [7] = tested on: Klebsiella aerogenes, K. oxytoca; experiment: MIC90 determination, clinical strains (CLSI); details: N=17
# Serratia marcescens = experiment: MIC90 determination, clinical strains (CLSI); details: N=15
# Morganella morganii = experiment: MIC90 determination, clinical strains (CLSI); details: N=11
# Klebsiella pneumoniae = experiment: MIC90 determination, clinical strains (CLSI); details: N=86
# Citrobacter freundii = experiment: MIC90 determination, clinical strains (CLSI); details: N=19
# Acinetobacter baumannii = experiment: MIC90 determination, clinical strains (CLSI); details: N=38
# [8] = tested on: Providencia rettgeri, P. stuartii; experiment: MIC90 determination, clinical strains (CLSI); details: N=12
SMILES,MIC [1] [µg/mL],MIC [2] [µg/mL],MIC [3] [µg/mL],MIC [4] [µg/mL],MIC [5] [µg/mL],MIC [6] [µg/mL],genotoxicity risk (in words) (CHO-K1 cells),% (in-vitro micronucleus assay) (CHO-K1 cells; Chinese hamster) [%],In vitro micronucleus forming concentration (CHO-K1 cells; Chinese hamster) [µM],IC50 (hERG potassium channel) [µM],further results
"O=C(O)c1cn(C2CC2)c2cc(N3CCNCC3)c(F)cc2c1=O [Ciprofloxacin, reference compound]",0.4,0.4,0.4,0.1,0.05,0.012,,,,,
"CN1C(=O)CNc2cc(F)c(OCCNC[C@@H]3CN(c4cnc5c(n4)NC(=O)CS5)C(=O)O3)nc21 [Compound 7, (R)-5-(((2-((7-fluoro-4-methyl-3-oxo-1,2,3,4-tetrahydropyrido[2,3-b]pyrazin-6-yl)oxy)ethyl)amino)methyl)-3-(3-oxo-3,4-dihydro-2H-pyrazino[2,3-b][1,4]thiazin-6-yl)oxazolidin-2-one]",< 0.015,0.06,0.03,1,0.06,0.03,completely devoid of any genotoxicity risk,0.41,>1000,> 300,
"C[C@@H](O)[C@H]1C(=O)N2C(C(=O)O)=C(S[C@@H]3CN[C@H](C(=O)N(C)C)C3)[C@H](C)[C@H]12 [Meropenem, reference compound]",,,,,,,,,,,"MIC 90 Pseudomonas aeruginosa (Pseudomonas aeruginosa): 16 µg/mL; MIC 90 Enterobacter cloacae (Enterobacter cloacae): 16 µg/mL; MIC 90 Escherichia coli (Escherichia coli): 2 µg/mL; MIC 90 Proteus mirabilis (Proteus mirabilis): 1 µg/mL; MIC 90 Klebsiella aerogenes, K. oxytoca [7]: 16 µg/mL; MIC 90 Serratia marcescens (Serratia marcescens): 16 µg/mL; MIC 90 Morganella morganii (Morganella morganii): 0.12 µg/mL; MIC 90 Klebsiella pneumoniae (Klebsiella pneumoniae): 16 µg/mL; MIC 90 Citrobacter freundii (Citrobacter freundii): 8 µg/mL; MIC 90 Acinetobacter baumannii (Acinetobacter baumannii): >8 µg/mL; MIC 90 Providencia rettgeri, P. stuartii [8]: 4 µg/mL"
"CO[C@@]12[C@H](COC(N)=O)C3=C(C(=O)C(C)=C(N)C3=O)N1C[C@@H]1N[C@@H]12 [Mitomycin C, reference compound]",,,,,,,,,,,% (in-vitro micronucleus assay) (CHO-K1 cells; CHO-K1 cells): 1.98%; In vitro micronucleus forming concentration (CHO-K1 cells; CHO-K1 cells): 0.300 µM

# Now from value to compound, other results behind:
MIC [1] [µg/mL],MIC [2] [µg/mL],MIC [3] [µg/mL],MIC [4] [µg/mL],MIC [5] [µg/mL],MIC [6] [µg/mL],SMILES,genotoxicity risk (in words) (CHO-K1 cells),% (in-vitro micronucleus assay) (CHO-K1 cells; Chinese hamster) [%],In vitro micronucleus forming concentration (CHO-K1 cells; Chinese hamster) [µM],IC50 (hERG potassium channel) [µM],further results
< 0.015,0.03,0.03,1,0.06,0.06,"[2H]C([2H])([2H])N1C(=O)CNc2ccc(OCCNCC3CN(c4cnc5c(n4)NC(=O)CS5)C(=O)O3)nc21 (stereo in doubt) [Compound 9, (R)-5-(((2-((4-(methyl-d3)-3-oxo-1,2,3,4-tetrahydropyrido[2,3-b]pyrazin-6-yl)oxy)ethyl)amino)methyl)-3-(3-oxo-3,4-dihydro-2H-pyrazino[2,3-b][1,4]thiazin-6-yl) oxazolidin-2-one]",completely devoid of any genotoxicity risk,0.51,>1000,141,
< 0.015,0.125,0.06,1,0.06,0.03,"CN1C(=O)CNc2ccc(OCCNC[C@@H]3CN(c4cnc5c(n4)NC(=O)CS5)C(=O)O3)nc21 [Compound 5, (R)-5-(((2-((4-methyl-3-oxo-1,2,3,4-tetrahydropyrido[2,3-b]pyrazin-6-yl)oxy)ethyl)amino)methyl)-3-(3-oxo-3,4-dihydro-2H-pyrazino[2,3-b][1,4]thiazin-6-yl)oxazolidin-2-one]",completely devoid of any genotoxicity risk,0.5,>1000,> 300,micronucleus formation (in words) (CHO-K1 cells): did not induce micronucleus formation
< 0.015,0.06,0.06,0.5,0.06,0.06,"CN1C(=O)CNc2ccc(OCCNC[C@H]3CN(c4cnc5c(n4)NC(=O)CS5)C(=O)O3)nc21 [Compound 6, (S)-5-(((2-((4-methyl-3-oxo-1,2,3,4-tetrahydropyrido[2,3-b]pyrazin-6-yl)oxy)ethyl)amino)methyl)-3-(3-oxo-3,4-dihydro-2H-pyrazino[2,3-b][1,4]thiazin-6-yl)oxazolidin-2-one]",completely devoid of any genotoxicity risk,0.4,>1000,> 300,micronucleus formation (in words) (CHO-K1 cells): did not induce micronucleus formation
< 0.015,0.125,0.06,1,0.06,0.03,"CN1C(=O)CNc2cc(F)c(OCCNC[C@H]3CN(c4cnc5c(n4)NC(=O)CS5)C(=O)O3)nc21 [Compound 8, (S)-5-(((2-((7-fluoro-4-methyl-3-oxo-1,2,3,4-tetrahydropyrido [2,3-b]pyrazin-6-yl)oxy)ethyl)amino)methyl)-3-(3-oxo-3,4-dihydro-2H-pyrazino[2,3-b][1,4]thiazin-6-yl)oxazolidin-2-one]",completely devoid of any genotoxicity risk,0.5,>1000,> 300,
